Reference: the NIST ThermoML archive (doi:10.1021/acs.jced.5b00675)
± gives the expanded uncertainty stated by the source.

Conditions: Liquid, Closed cell (Static) method

FCC(F)(F)F [1,1,1,2-tetrafluoroethane]
vapor or sublimation pressure (258.2 K): 162 ± 5 kPa
vapor or sublimation pressure (262.2 K): 193 ± 5 kPa
vapor or sublimation pressure (272.2 K): 286 ± 5 kPa
vapor or sublimation pressure (282.6 K): 411 ± 5 kPa
vapor or sublimation pressure (292.9 K): 569 ± 5 kPa
vapor or sublimation pressure (302.7 K): 763 ± 6 kPa
